# Reference: patent EP3095787A1, “[…] ACTIVE COMPOUNDS AS DAG-LIPASE INHIBITORS” (Universiteit Leiden, priority 2015, dated 2016)
# Molecular target: T1, FAAH (Mus musculus, UniProt O08914)
# T1 construct: For gel based ABPP experiments mouse brain proteome (2.0 mg/mL, 20 µL) was preincubated; from tissue; host or cells: mouse brain proteome
# T1 sequence (O08914 1-579): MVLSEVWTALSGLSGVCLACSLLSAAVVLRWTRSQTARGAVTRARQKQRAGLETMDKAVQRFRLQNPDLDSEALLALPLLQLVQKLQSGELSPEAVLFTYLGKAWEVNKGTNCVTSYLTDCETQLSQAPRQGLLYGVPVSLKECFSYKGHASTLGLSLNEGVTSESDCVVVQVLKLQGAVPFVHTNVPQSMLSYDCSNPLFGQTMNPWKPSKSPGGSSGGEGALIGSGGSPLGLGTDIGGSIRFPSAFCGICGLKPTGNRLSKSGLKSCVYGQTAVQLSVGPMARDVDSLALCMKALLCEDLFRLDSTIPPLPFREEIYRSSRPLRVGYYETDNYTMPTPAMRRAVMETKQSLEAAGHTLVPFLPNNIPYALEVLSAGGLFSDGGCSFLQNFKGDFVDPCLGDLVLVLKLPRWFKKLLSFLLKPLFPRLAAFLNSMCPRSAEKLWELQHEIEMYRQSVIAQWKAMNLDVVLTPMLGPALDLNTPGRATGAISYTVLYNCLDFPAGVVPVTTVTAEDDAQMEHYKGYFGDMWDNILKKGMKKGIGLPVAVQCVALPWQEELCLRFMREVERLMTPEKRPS
# Test: Gel based competitive ABPP selectivity assay with TAMRA-FP in mouse brain proteome (FAAH band)
# Type: biochemical
# Conditions: for FAAH ABPP (10 µm) % Eff.: 10 µM inhibitor, TAMRA-FP 500 nM, mouse brain proteome, vehicle set to 100%
# Description: For gel based ABPP experiments mouse brain proteome (2.0 mg/mL, 20 µL) was preincubated for 30 min with vehicle (DMSO) or compound to be tested in 0.5 µL DMSO at rt. And subsequently treated with 500 nM (final concentration) TAMRA-FP (TAMRA-FP was bought at Thermo Fischer) for 15 minutes at rt. The reactions were quenched with 10 µL standard 3 x SDS page sample buffer. The samples were directly loaded and resolved on SDS page gel (10 % acrylamide). The gels were scanned with a ChemiDoc MP sytem (Biorad, Cy 3 settings, 605/50 filter) and analyzed using Image Lab 4.1.
# The percentage effect on FAAH was determined by measuring the integrated optical intensity of the band corresponding to FAAH (∼ 63 kD for mouse) using Image lab software. This activity was corrected for the total protein loading per lane as determined by coomassie staining and imaging with a ChemiDoc™ MP sytem (Biorad) followed by determination of the integrated optical intensity per lane by using Image Lab 4.1 software. The intensity of the protein bands from the samples treated with vehicle was set to 100%. […] N/A means less than 50% probe displacement at 10 µM inhibitor concentration.
"FAAH labeling (up to a concentration of 10 µM, n=3)",Compound,FAAH ABPP (10 µm) % Eff.
did not block FAAH labeling,"Cc1ccc(-c2cnc3nc(C(=O)CCCCCc4ccccc4)oc3c2)cc1 [Compound 25, 1-(6-(p-Tolyl)oxazolo[4,5-b]pyridin-2-yl)-6-phenylhexan-1-one]",N/A (N/A means less than 50% probe displacement at 10 µM inhibitor concentration)
–,"O=C(CCCCCc1ccccc1)c1nc2ncccc2o1 [Compound 1, 1-(Oxazolo[4,5-b]pyridin-2-yl)-6-phenylhexan-1-one, reference compound]",99%
